Source: ChEMBL document CHEMBL1201862, “PubChem BioAssay data set” (2004)
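Protocol summary: plate cells (96-well), add compound at 5 concentrations, incubate 48 h, interpolate endpoints linearly. Here, GI50 denotes the concentration required for 50% inhibition of growth.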 The source made the active and inactive calls. Cut-off read from the data, not from the text of the source: active = GI50 up to about 1.1 µM and inactive = higher.

Tests used:
Assay in all cases: growth of human tumour cells (NCI), 48 h
[1] = tested on: BT-549
[2] = tested on: DU-145
[3] = tested on: Hs-578T
[4] = tested on: KM12
[5] = tested on: M14
[6] = tested on: MCF7
[7] = tested on: MDA-MB-435
[8] = tested on: MDA-N
[9] = tested on: Malme-3M
[10] = tested on: NCI-H23
[11] = tested on: NCI/ADR-RES
[12] = tested on: SR
[13] = tested on: T47D
[14] = tested on: TK-10
[15] = tested on: DLD-1
[16] = tested on: DMS-114
[17] = tested on: DMS-273
[18] = tested on: KM-20L2
[19] = tested on: XF498
[20] = tested on: CCRF-CEM

For `OC(c1cccnc1Cl)c1nc2ccccc2c2ccnc(Cl)c12` (stereo not drawn), the GI50 [1] was 5.79 µM (inactive), the GI50 [2] was 23 µM (inactive) and the GI50 [3] was 2.72 µM (inactive). The GI50 [4] was 2.94 µM (inactive), the GI50 [5] was 2.08 µM (inactive) and the GI50 [6] was 3.04 µM (inactive). The GI50 [7] was 0.628 µM (active), the GI50 [8] was 0.69 µM (active) and the GI50 [9] was 6.92 µM (inactive). For the same compound, the GI50 [10] was 20.5 µM (inactive), the GI50 [11] was 2.88 µM (inactive) and the GI50 [12] was 0.396 µM (active). The GI50 [13] was 21.4 µM (inactive) and the GI50 [14] was 24.3 µM (inactive).
`CCOC(=O)[C@H]1Nc2ccc(Cl)cc2[C@H]2c3ccccc3O[C@H]21` was tested, and the GI50 [15] was 63 µM (inactive), the GI50 [16] was > 100 µM (inactive) and the GI50 [17] was 30.1 µM (inactive). The GI50 [18] was > 100 µM (inactive), the GI50 [4] was 93.5 µM (inactive) and the GI50 [5] was 41.2 µM (inactive). The GI50 [10] was > 10 µM (inactive), the GI50 [12] was 94.8 µM (inactive) and the GI50 [14] was 39.8 µM (inactive). The GI50 [19] was > 100 µM (inactive).
For `CCOC(=O)c1c(NC(=O)Nc2ccccc2)c(C(N)=O)c2n1CCCCC2`, the GI50 [1] was > 100 µM (inactive), the GI50 [20] was > 100 µM (inactive) and the GI50 [2] was > 100 µM (inactive). For the same compound, the GI50 [3] was > 100 µM (inactive), the GI50 [4] was > 100 µM (inactive) and the GI50 [5] was > 100 µM (inactive). The GI50 [6] was > 100 µM (inactive), the GI50 [7] was > 100 µM (inactive) and the GI50 [10] was > 100 µM (inactive). The GI50 [11] was > 100 µM (inactive), the GI50 [12] was > 100 µM (inactive) and the GI50 [13] was > 100 µM (inactive). The GI50 [14] was > 100 µM (inactive).
`CC(=O)OC[C@H]1[C@@H]2C(CC[C@]13CO3)OC(=O)CC(C)[C@]2(C)CCc1ccoc1` (stereo partly drawn) was tested, and the GI50 [1] was > 100 µM (inactive), the GI50 [20] was > 100 µM (inactive) and the GI50 [2] was > 100 µM (inactive). The GI50 [3] was > 100 µM (inactive), the GI50 [4] was > 100 µM (inactive) and the GI50 [5] was > 100 µM (inactive). The GI50 [6] was > 100 µM (inactive), the GI50 [7] was > 100 µM (inactive) and the GI50 [8] was > 100 µM (inactive). For the same compound, the GI50 [9] was > 100 µM (inactive), the GI50 [10] was > 100 µM (inactive) and the GI50 [11] was > 100 µM (inactive). The GI50 [12] was > 100 µM (inactive), the GI50 [13] was > 100 µM (inactive) and the GI50 [14] was > 100 µM (inactive).
`Nc1ccn(C2OC(CO)C(O)C2(F)F)c(=O)n1` (stereo not drawn) was tested, and the GI50 [1] was 0.33 µM (active), the GI50 [2] was 0.179 µM (active) and the GI50 [4] was 39.4 µM (inactive). For the same compound, the GI50 [5] was 0.0313 µM (active), the GI50 [6] was 0.0847 µM (active) and the GI50 [7] was 0.384 µM (active). For the same compound, the GI50 [8] was 0.237 µM (active), the GI50 [9] was 0.63 µM (active) and the GI50 [10] was 0.0391 µM (active). For the same compound, the GI50 [11] was 0.0755 µM (active), the GI50 [12] was 0.158 µM (active) and the GI50 [13] was 0.387 µM (active).
`CCOC(=O)c1ccc(Nc2nc3cc(C(F)(F)F)ccc3nc2C(=O)OCC)cc1` was tested, and the GI50 [1] was 72.6 µM (inactive), the GI50 [20] was > 100 µM (inactive) and the GI50 [2] was > 100 µM (inactive). The GI50 [3] was > 100 µM (inactive), the GI50 [4] was > 100 µM (inactive) and the GI50 [5] was 34.2 µM (inactive). For the same compound, the GI50 [6] was > 100 µM (inactive), the GI50 [7] was > 100 µM (inactive) and the GI50 [8] was > 100 µM (inactive). For the same compound, the GI50 [10] was 99.1 µM (inactive), the GI50 [11] was > 100 µM (inactive) and the GI50 [12] was > 100 µM (inactive). For the same compound, the GI50 [13] was 69.3 µM (inactive) and the GI50 [14] was 26.4 µM (inactive).
For `CCN1c2ccccc2NC(=S)c2c(-c3ccccc3)n[nH]c21`, the GI50 [1] was 45.5 µM (inactive), the GI50 [20] was 18.3 µM (inactive) and the GI50 [2] was 39.9 µM (inactive). For the same compound, the GI50 [3] was 75.5 µM (inactive), the GI50 [4] was 31.7 µM (inactive) and the GI50 [5] was 31.6 µM (inactive). For the same compound, the GI50 [6] was 22.4 µM (inactive), the GI50 [7] was 18.4 µM (inactive) and the GI50 [8] was 16.4 µM (inactive). The GI50 [10] was 26.5 µM (inactive), the GI50 [11] was 23.1 µM (inactive) and the GI50 [12] was 24.7 µM (inactive). The GI50 [13] was 17.9 µM (inactive) and the GI50 [14] was 48.4 µM (inactive).
With `COc1cc(C2S/C(=C/c3ccccc3)C(=O)N2c2cccc(NC(C)=O)c2)cc(OC)c1OC` (stereo not drawn) the GI50 [1] was 24.7 µM (inactive), the GI50 [20] was 40.2 µM (inactive) and the GI50 [3] was 15.3 µM (inactive). For the same compound, the GI50 [4] was 27.2 µM (inactive), the GI50 [5] was 34.4 µM (inactive) and the GI50 [6] was 26.1 µM (inactive). The GI50 [7] was 18.3 µM (inactive), the GI50 [8] was 26.7 µM (inactive) and the GI50 [9] was 23.4 µM (inactive). For the same compound, the GI50 [10] was 38 µM (inactive), the GI50 [11] was 27.9 µM (inactive) and the GI50 [12] was 37.9 µM (inactive). For the same compound, the GI50 [13] was 15.4 µM (inactive) and the GI50 [14] was 80.5 µM (inactive).
In the case of `Cc1ccc(C2=C(C#N)C(N)OC3=C2COc2ccccc23)cc1` (stereo not drawn), the GI50 [1] is reported as > 100 µM (inactive), the GI50 [20] is reported as 22.9 µM (inactive) and the GI50 [2] is reported as 17.6 µM (inactive). The GI50 [4] was > 100 µM (inactive), the GI50 [5] was > 100 µM (inactive) and the GI50 [6] was > 100 µM (inactive). The GI50 [7] was 51.9 µM (inactive), the GI50 [8] was 44.2 µM (inactive) and the GI50 [9] was 22.8 µM (inactive). The GI50 [10] was 43.5 µM (inactive), the GI50 [11] was 30.3 µM (inactive) and the GI50 [12] was 32.6 µM (inactive). The GI50 [14] was 17.2 µM (inactive).
For `C[n+]1c2ccccc2n2c3ccccc3c(NCCCn3ccnc3)c(C#N)c21`, the GI50 [1] was 17.6 µM (inactive), the GI50 [2] was 2.77 µM (inactive) and the GI50 [3] was 1.64 µM (inactive). For the same compound, the GI50 [4] was 2.01 µM (inactive), the GI50 [5] was 2.26 µM (inactive) and the GI50 [6] was 0.547 µM (active). The GI50 [7] was 2.23 µM (inactive), the GI50 [8] was 2.7 µM (inactive) and the GI50 [9] was 1.9 µM (inactive). For the same compound, the GI50 [10] was 2.27 µM (inactive), the GI50 [11] was > 42 µM (inactive) and the GI50 [12] was 1.27 µM (inactive). The GI50 [13] was 1.61 µM (inactive) and the GI50 [14] was 7.11 µM (inactive).
